Assay results reported in the NIST ThermoML archive (doi:10.1016/j.jct.2016.07.003).

Legend:
[1] = mn = molality of the nth substance listed, in mol/kg; conditions: 87 kPa, Liquid, Vibrating tube method
[2] = osmotic coefficient (dimensionless); mn = molality of the nth substance listed, in mol/kg; conditions: 298.15 K, 87 kPa, Liquid, isopiestic method
[3] = wn = mass fraction of the nth substance listed; conditions: 87 kPa, Liquid, Vibrating tube method

CCn1cc[n+](C)c1.O=S(=O)([O-])O [1-ethyl-3-methylimidazolium hydrogen sulfate] + O
mass density [kg/m3], [1]
Conditions	m1 = 0.0363	m1 = 0.0687	m1 = 0.1026	m1 = 0.1384	m1 = 0.1716	m1 = 0.2049	m1 = 0.2391	m1 = 0.2718	m1 = 0.3034	m1 = 0.3375
293.15 K	1000.86	1003.08	1005.3	1007.57	1009.63	1011.67	1013.72	1015.68	1017.53	1019.54
298.15 K	999.65	1001.82	1003.99	1006.22	1008.23	1010.23	1012.24	1014.17	1016	1017.98
303.15 K	998.2	1000.33	1002.46	1004.64	1006.63	1008.6	1010.58	1012.47	1014.26	1016.21
308.15 K	996.54	998.63	1000.73	1002.87	1004.82	1006.76	1008.7	1010.58	1012.34	1014.25
313.15 K	994.68	996.73	998.8	1000.91	1002.83	1004.74	1006.66	1008.5	1010.24	1012.13

[2]
Conditions	osmotic coefficient
m1 = 1.038	0.895
m1 = 1.543	0.897
m1 = 1.745	0.898
m1 = 1.961	0.9
m1 = 2.045	0.904
m1 = 2.251	0.909
m1 = 2.534	0.915
m1 = 2.814	0.919
m1 = 3.343	0.93
m1 = 4.042	0.948
m1 = 4.513	0.96
m1 = 5.04	0.974
m1 = 5.663	0.993
m1 = 6.555	1.03
m1 = 6.91	1.05

[Cl-].[Li+] [lithium chloride] + O
[2]
Conditions	osmotic coefficient
m1 = 0.9064	1.02
m1 = 1.278	1.08
m1 = 1.439	1.09
m1 = 1.616	1.09
m1 = 1.667	1.11
m1 = 1.83	1.12
m1 = 1.99	1.16
m1 = 2.183	1.18
m1 = 2.563	1.21
m1 = 3.014	1.27
m1 = 3.293	1.32
m1 = 3.572	1.37
m1 = 3.952	1.42
m1 = 4.457	1.51
m1 = 4.668	1.55

mass density [kg/m3], [3]
Conditions	293.15 K	298.15 K	303.15 K	308.15 K	313.15 K
w1 = 0.0346	–	1016.17	1014.72	1013.08	1011.25
w1 = 0.0691	1036.35	1035.04	1033.55	1031.8	1030.06
w1 = 0.1035	1055.18	1053.81	1052.33	1050.73	1049.03
w1 = 0.1379	1074.05	1072.65	1071.16	1069.55	1067.85
